Measurements taken from patent US10464901B2, “Composition including benzene diamine derivative for preventing or treating degenerative brain diseases” (UNIST(ULSAN NATIONAL INSTITUTE OF SCIENCE AND TECHNOLOGY), priority 2017, dated 2019).

Columns and labels:
Cu(II)-Aβ = experiment: Aβ aggregation inhibition, gel electrophoresis and Western blotting with anti-Aβ antibody (6E10); type: biochemical
Excerpt: It was examined whether the benzene diamine derivatives of the present disclosure have inhibitory effects on Aβ aggregation. Aβ has two isoforms, and therefore, effects on Aβ40 and Aβ42 were examined, respectively. When metals are involved in protein folding, the probability of abnormal folding is high. In this case, the probability of Aβ aggregate formation is further increased.
In order to perform molecular analysis of Aβ aggregation-inhibitory effects of the benzene diamine derivatives of the present disclosure, gel electrophoresis and Western blotting were performed by using anti-Aβ antibody (6E10). As a control group, compound 1
In detail, each sample (10 μl) was separated on a 10-20% Tris-tricine gel (Invitrogen, Grand Island, N.Y., USA). After separation, the proteins were transferred onto a nitrocellulose membrane and blocked with bovine serum albumin (BSA, 3% w/v, Sigma-Aldrich, St Louis, Mo., USA) in Tris-buffered saline (TBS) containing 0.1% Tween-20 (TBS-T) at room temperature for 2 hours or at 4° C. overnight. The membrane was incubated in a 2% BSA (w/v in TBS-T) solution, together with anti-Aβ antibody (6E10, 1:2,000, Covance, Princeton, N.J., USA), at room temperature for 4 hours or at 4° C. overnight. The membrane was washed with TBS-T (3×, 10 min), and a secondary mouse antibody (1:5,000 in 2% BSA w/v in TBS-T; Cayman Chemical Company, Ann Arbor, Mich., USA) was added thereto, followed by incubation at room temperature for 1 hour. Thermo Scientific SuperSignal West Pico Chemiluminescent Substrate (Thermo Scientific, Rockford, Ill., USA), Biosesang ECL Plus kit (Biosesang, Gyeonggi-do, Republic of Korea), or homemade ECL kit53 were used for visualization, and ChemiDoc MP Imaging System (Bio-Rad, Hercules, Calif., USA) was used for detection.

[1] = Antioxidant effect: free organic radical-scavenging activity (ABTS) using cell lysate; type: biochemical; details: Table 1 summary of Example 3; symbols not defined
Protocol: It was examined whether the benzene diamine derivatives of the present disclosure have an antioxidant effect. It is known that reactive oxygen species induces oxidative stress in neuronal cells to cause neuronal cell death and causes protein misfolding to induce formation of Aβ aggregates. Therefore, compounds having antioxidant effects may be candidates for preventing or treating dementia.
Free organic radical-scavenging activity of the compound was determined according to a protocol of Cayman Chemical Company (Ann Arbor, Mich., USA) with slight modifications. For antioxidant analysis using a cell lysate, cells were seeded in a 6-well plate, and cultured until they reached 80-90% confluence. A cell lysate was prepared according to a known method, washed with a cold phosphate buffer solution (PBS; pH 7.4, GIBCO), and then harvested. Cell pellet was produced by centrifugation (2,000 g, 4° C., 10 min). This pellet was sonicated (5 sec pulse, 20 sec interval, three times) in 2 ml of cold assay buffer S13 (5 mM potassium phosphate, pH 7.4; 0.9% NaCl; 0.1% glucose) on ice. A cell lysate was centrifuged at 4° C. for 10 minutes at 5,000 g. A supernatant was removed, and left on ice until use. To the cell lysate supernatant (10 μl), the compound, metmyoglobin, ABTS (2,2′-azino-bis-3-ethylbenzothiazoline-6-sulfonic acid), and hydrogen peroxide were sequentially added. The mixture was incubated on a shaker at room temperature for 5 minutes, and absorbance at 750 nm was measured. The compound at a final concentration of 45, 90, 135, 180, 225, or 330 μM and Trolox (6-hydroxy-2,5,7,8-tetramethyl-chroman-2-carboxylic acid, dissolved in EtOH) were used. Antioxidant activity was calculated according to the measured absorbance [% inhibition=100×(A0−A)/A0, A0 represents absorbance of the supernant of the cell lysate]. Each measurement was repeated in triplicate.

[2] = system: APP/PS/Tau dementia mouse model; experiment: Morris water maze test, memory capacity of dementia mouse model; type: in vivo; details: oral 100 μg/kg twice a week for 2 months
Protocol: In order to investigate enhancement of spatial cognition and memory in dementia mouse models by the benzene diamine derivatives of the present disclosure, a Morris water maze (Harvard Apparatus, USA) test was performed.
In detail, a water maze composed of a stainless steel pool with a diameter of 150 cm×a height of 60 cm and an escape platform (10 cm in diameter, 30 cm in height) was filled with water at 22±2° C., and the height was 2 cm above the platform such that when a mouse sat on the escape platform, the body was allowed to come out of the water. […] Escape latency was measured as the time taken for the experimental animal to go to the escape platform when the experimental animal went to the escape platform and stayed thereon for more than 20 seconds. This test was performed three times a day, and a mean value was determined as mean escape latency. The escape latency was recorded on the computer program (Smart Video Tracking System V3.0, PanLab SL, Barcelona, Spain) by installing a camera on the ceiling above the water tank. The experiment was performed three times a day for 6 days, and at this time, the possibility of accidentally visiting the escape platform was minimized by sequentially changing the positions of the experimental animals in the water tank. In the experiment, a normal mouse, a control dementia mouse administered with a vehicle (PBS) and an experimental dementia mouse administered with 100 μg/kg of N^1-(pyridin-2-ylmethypenzene-1,4-diamine (Compound 2) twice a week for 2 months were used after completing administration, as in Experimental Example 1.

PAMPA-BBB analysis = type: in vitro ADME
Protocol: […] PAMPA-BBB analysis was performed by using a PAMPA Explorer kit (pION, Inc. Billerica, Mass., USA) according to the manufacture's protocol with slight modifications. […] The prepared solution was put in each well of a donor plate (200 μl, repeated 12 times). A polyvinylidene fluoride (PVDF, […]) filter membrane on an acceptor plate was coated with BBB-1 lipid formulation (5 μl, pION). The acceptor plate was placed on top of the donor plate to generate a “sandwich”. Brain sink buffer (BSB, 200 μl, pION) was added to each well of the acceptor plate. The sandwich-shaped plate was incubated for 4 hours at room temperature without stirring. UV-vis spectra of the solutions in the reference, acceptor, and donor plates were measured using a microplate reader. A PAMPA Explorer software [v. 3.8 (pION)] was used to calculate the −log Pe values for compounds. CNS±designations were assigned by comparison with compounds that were identified in previous reports.

## Nc1ccc(NCc2ccccn2)cc1 [Compound 2, N^1-(pyridin-2-ylmethyl)benzene-1,4-diamine]
Cu(II)-Aβ; Table 1 summary of Example 2, symbols not defined
  Cu(II)-Aβ (inhibitory effect on Aβ aggregation): ◯
Cu(II)-Aβ; two kinds of Aβ, FIG. 1
  Cu(II)-Aβ-inhibitory effect: very excellent Cu(II)-Aβ-inhibitory effect on two kinds of Aβ
[1]
  Reactive oxygen species (antioxidant effect): ◯ (better effect than TEAC)
[2]; AD mice
  difference in mean escape latency vs control group at 4 days: 16 s
  difference in mean escape latency vs dementia group at 5 days: 19 s
  mean escape latency at 4 days: 26 ± 1 s
  mean escape latency at 5 days: 24 ± 1 s
[2]; vs dementia control group, FIG. 5
  mean escape latency at 3 days (worded): significantly short mean escape latency
PAMPA-BBB analysis; 50 μM, incubation 4 hrs, U.V
  PAMPA-BBB permeability class: High
PAMPA-BBB analysis; PAMPA, pH 7.4, 50 μM, incubation 4 hrs, U.V, read-out: Pe
  Papp at 4 h, 50 μM: 12.5 ×10⁻⁶ cm/s
PAMPA-BBB analysis; assigned by comparison with compounds identified in previous reports
  CNS± designation: (CNS+)
